# Like-named read-outs stand apart in the source and are kept apart here.
# Assays:
# [1] = system: rat diaphorase; format: biochemical
# [2] = system: Clostridium diaphorase; format: biochemical
# [3] = system: rat diaphorase; format: biochemical; remark: listed apart in the source
# [4] = system: rat diaphorase; format: biochemical; conditions: 20 μM compound
# [5] = system: rat diaphorase; format: biochemical; conditions: 20 μM compound, 40 min
# [6] = system: rat diaphorase; format: biochemical; remark: listed apart in the source
# [7] = biological target: T1, rat diaphorase (Rattus norvegicus, UniProt P05982); format: biochemical; conditions: for FLUs: 1 u/ml rat diaphorase; for Fluorescence time course, Rat: 10 uM NADH
# T1 construct: purchased Sigma
# T1 sequence (P05982 2-274 limits assumed): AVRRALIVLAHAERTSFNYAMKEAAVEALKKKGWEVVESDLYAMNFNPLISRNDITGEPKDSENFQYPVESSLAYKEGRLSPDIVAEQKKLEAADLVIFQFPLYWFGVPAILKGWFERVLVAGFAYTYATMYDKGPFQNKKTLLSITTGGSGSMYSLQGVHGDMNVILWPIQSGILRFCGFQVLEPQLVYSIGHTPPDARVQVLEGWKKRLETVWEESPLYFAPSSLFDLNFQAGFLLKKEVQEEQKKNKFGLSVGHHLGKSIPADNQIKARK
# [8] = system: Clostridium diaphorase; experiment: Fluorescent NADH detection assay, Clostridium diaphorase; format: biochemical; conditions: for FLUs: 1 u/ml Clostridium diaphorase; for Fluorescence time course, Clostridium: 10 uM NADH
# Method: Each fluorescent substrate (PBI-4412, 4413, 4440, and 4441) was incubated at 920 μM with 0 μM or 10 μM NADH (Sigma) or a titration of NADH (Table 8) and 1 u/ml rat diaphorase (Sigma) or 1 u/ml Clostridium diaphorase (Sigma) in a volume of 100 μl in 50 mM Tris pH 7.5. Single reactions were prepared in the wells of a 96-well black plate at room temperature. Fluorescence was monitored over the course of two hours at excitation and emission wavelengths of 485 and 527, respectively, using a fluorescence plate reader. […] Table 7 and FIGS. 24a-b show the reaction time course with each substrate with 10 uM NADH. Table 8 and FIG. 25 show the NADH titration at 60 minutes with PBI-4440 and 4412 with rat diaphorase.
# [9] = system: HeLa cells; experiment: Fluorescent imaging of live cells; format: cell-based; conditions: 10 μM substrate
# Method: HeLa cells were plated at 40,000 cell/well into wells of an 8-well chambered coverslip and incubated at 37° C.+5% CO2. The media (DMEM) was replaced with warm complete media (with 10% FBS) containing 10 μM PBI-4412, 4413, 4440 or 4441. Cells were then transferred to a confocal microscope for imaging using 10% λ488 nm laser power (4412, 4413, and 4441) or 5% laser power (4440). All images (FIGS. 6a-d) are at 30× magnification.
# [10] = NADH no, diaphorase yes (5 u/ml rat)
# [11] = NADH yes (10 μM), diaphorase no
# [12] = NADH yes (10 μM), diaphorase yes (5 u/ml rat), 20 min
# [13] = 20 μM compound, 10 μM NADH, 5 u/ml rat diaphorase, 70 min
# [14] = 20 μM compound, no NADH, 5 u/ml rat diaphorase, 70 min
# [15] = signal with NADH / without NADH, rat diaphorase
# [16] = 20 μM compound, 10 μM NADH, 0.5 u/ml Clostridium diaphorase, 70 min
# [17] = 20 μM compound, no NADH, 0.5 u/ml Clostridium diaphorase, 70 min
# [18] = signal with NADH / without NADH, Clostridium diaphorase
# [19] = ~1 min after LDR with 500 μM menadione, 20 μM compound, 10 μM NADH
# [20] = ~1 min after LDR, 20 μM compound, 10 μM NADH
# [21] = ~6 min after LDR with 500 μM menadione, 20 μM compound, 10 μM NADH
# [22] = ~6 min after LDR, 20 μM compound, 10 μM NADH
# [23] = reaction time 0 min, 20 μM compound, 10 μM NADH
# [24] = 10 μM NADH, 60 min, substrate 920 μM
smiles,measurement,setting,value
"CC1=C(C)C(=O)C(C(C)(C)CC(=O)N(C)c2ccc(COC(=O)Nc3ccc4nc(C5=N[C@@H](C(=O)O)CS5)sc4c3)cc2)=C(C)C1=O [PBI 4550, Quinone trimethyllock-N-methyl-luciferin carbamate]",Avg RLU With NADH,[1],62987 RLU
same,Avg RLU Without NADH,[1],2337 RLU
same,S/B,[1],27
same,Avg RLU With NADH,[2],25644 RLU
same,Avg RLU Without NADH,[2],2597 RLU
same,S/B,[2],10
same,First Reading With menadione,[3],1786 RLU
same,First Reading Without menadione,[3],16495 RLU
same,Last Reading With menadione,[3],2393 RLU
same,Last Reading Without menadione,[3],100603 RLU
"CC1=C(C)C(=O)C(C(C)(C)CC(=O)N(C)CC(C)(C)CN(C)C(=O)Oc2ccc3nc(C4=N[C@@H](C(=O)O)CS4)sc3c2)=C(C)C1=O [PBI 4565, Quinone trimethyllock-N,N′,2,2-tetramethylpropanediamine carbamate luciferin]",Avg RLU,"[4]; NADH no, diaphorase no",801 RLU
same,Avg RLU,[4]; [10],860 RLU
same,Avg RLU,[4]; [11],891 RLU
same,Avg RLU,[4]; [12],98349 RLU
same,Avg RLU With NADH,[1]; [13],48903 RLU
same,Avg RLU Without NADH,[1]; [14],479 RLU
same,S/B,[1]; [15],102
same,Avg RLU With NADH,[2]; [16],18559 RLU
same,Avg RLU Without NADH,[2]; [17],646 RLU
same,S/B,[2]; [18],29
same,Avg RLU,[5]; NADH 0 μM,967 RLU
same,Avg RLU,[5]; NADH 0.006 μM,1120 RLU
same,Avg RLU,[5]; NADH 0.012 μM,1412 RLU
same,Avg RLU,[5]; NADH 0.024 μM,2300 RLU
same,Avg RLU,[5]; NADH 0.049 μM,3065 RLU
same,Avg RLU,[5]; NADH 0.098 μM,4931 RLU
same,Avg RLU,[5]; NADH 0.195 μM,8863 RLU
same,Avg RLU,[5]; NADH 0.39 μM,16200 RLU
same,Avg RLU,[5]; NADH 0.78 μM,13828 RLU
same,Avg RLU,[5]; NADH 1.56 μM,29258 RLU
same,Avg RLU,[5]; NADH 3.125 μM,63621 RLU
same,Avg RLU,[5]; NADH 6.25 μM,128719 RLU
same,Avg RLU,[5]; NADH 12.5 μM,258360 RLU
same,Avg RLU,[5]; NADH 25 μM,294331 RLU
same,Avg RLU,[5]; NADH 50 μM,287306 RLU
same,Avg RLU,[5]; NADH 100 μM,306242 RLU
same,First Reading With menadione,[3]; [19],324 RLU
same,First Reading Without menadione,[3]; [20],564 RLU
same,Last Reading With menadione,[3]; [21],446 RLU
same,Last Reading Without menadione,[3]; [22],4407 RLU
same,Avg RLU,[6]; [23],1294 RLU
same,Avg RLU,[6]; reaction time 2 min,41615 RLU
same,Avg RLU,[6]; reaction time 5 min,69945 RLU
same,Avg RLU,[6]; reaction time 10 min,117067 RLU
same,Avg RLU,[6]; reaction time 15 min,154427 RLU
same,Avg RLU,[6]; reaction time 25 min,252212 RLU
same,Avg RLU,[6]; reaction time 30 min,262123 RLU
same,Avg RLU,[6]; reaction time 40 min,278567 RLU
same,Avg RLU,[6]; reaction time 50 min,328037 RLU
same,Avg RLU,[6]; reaction time 60 min,330433 RLU
"CC1=C(C)C(=O)C(C(C)(C)CC(=O)N(C)CCN(C)C(=O)Oc2ccc3nc(C4=N[C@@H](C(=O)O)CS4)sc3c2)=C(C)C1=O [PBI 4312, quinone trimethyllock-C2-diamine luciferin]",Avg RLU,"[4]; NADH no, diaphorase no",4262 RLU
same,Avg RLU,[4]; [10],3910 RLU
same,Avg RLU,[4]; [11],3918 RLU
same,Avg RLU,[4]; [12],197017 RLU
same,Avg RLU With NADH,[1]; [13],120633 RLU
same,Avg RLU Without NADH,[1]; [14],4981 RLU
same,S/B,[1]; [15],24
same,Avg RLU With NADH,[2]; [16],29068 RLU
same,Avg RLU Without NADH,[2]; [17],5311 RLU
same,S/B,[2]; [18],5.5
same,Avg RLU,[5]; NADH 0 μM,5410 RLU
same,Avg RLU,[5]; NADH 0.006 μM,6447 RLU
same,Avg RLU,[5]; NADH 0.012 μM,7075 RLU
same,Avg RLU,[5]; NADH 0.024 μM,8864 RLU
same,Avg RLU,[5]; NADH 0.049 μM,11190 RLU
same,Avg RLU,[5]; NADH 0.098 μM,20126 RLU
same,Avg RLU,[5]; NADH 0.195 μM,27871 RLU
same,Avg RLU,[5]; NADH 0.39 μM,43659 RLU
same,Avg RLU,[5]; NADH 0.78 μM,33801 RLU
same,Avg RLU,[5]; NADH 1.56 μM,60043 RLU
same,Avg RLU,[5]; NADH 3.125 μM,119311 RLU
same,Avg RLU,[5]; NADH 6.25 μM,235674 RLU
same,Avg RLU,[5]; NADH 12.5 μM,465875 RLU
same,Avg RLU,[5]; NADH 25 μM,608014 RLU
same,Avg RLU,[5]; NADH 50 μM,687602 RLU
same,Avg RLU,[5]; NADH 100 μM,663944 RLU
same,First Reading With menadione,[3]; [19],3527 RLU
same,First Reading Without menadione,[3]; [20],5900 RLU
same,Last Reading With menadione,[3]; [21],5062 RLU
same,Last Reading Without menadione,[3]; [22],39855 RLU
same,Avg RLU,[6]; [23],7809 RLU
same,Avg RLU,[6]; reaction time 2 min,150745 RLU
same,Avg RLU,[6]; reaction time 5 min,206822 RLU
same,Avg RLU,[6]; reaction time 10 min,305968 RLU
same,Avg RLU,[6]; reaction time 15 min,366592 RLU
same,Avg RLU,[6]; reaction time 25 min,499283 RLU
same,Avg RLU,[6]; reaction time 30 min,529063 RLU
same,Avg RLU,[6]; reaction time 40 min,544475 RLU
same,Avg RLU,[6]; reaction time 50 min,599165 RLU
same,Avg RLU,[6]; reaction time 60 min,571954 RLU
"CC1=C(C)C(=O)C(C(C)(C)CC(=O)N(C)CCN(C)C(=O)Oc2ccc3c(c2)Oc2cc(OC(=O)N(C)CCN(C)C(=O)CC(C)(C)C4=C(C)C(=O)C(C)=C(C)C4=O)ccc2C32OC(=O)c3ccccc32)=C(C)C1=O [PBI 4441, Bis-quinone trimethyllock diamine fluorescein]",FLUs,"[7]; 0 μM NADH, 60 min",120 FLUs
same,FLUs,[7]; [24],7387 FLUs
same,"Fluorescence time course, Rat",[7]; 2 min,302 FLUs
same,"Fluorescence time course, Rat",[7]; 4 min,608 FLUs
same,"Fluorescence time course, Rat",[7]; 5 min,827 FLUs
same,"Fluorescence time course, Rat",[7]; 10 min,1961 FLUs
same,"Fluorescence time course, Rat",[7]; 20 min,3454 FLUs
same,"Fluorescence time course, Rat",[7]; 30 min,4460 FLUs
same,"Fluorescence time course, Rat",[7]; 40 min,5442 FLUs
same,"Fluorescence time course, Rat",[7]; 50 min,6457 FLUs
same,"Fluorescence time course, Rat",[7]; 60 min,7387 FLUs
same,"Fluorescence time course, Rat",[7]; 70 min,8891 FLUs
same,"Fluorescence time course, Rat",[7]; 80 min,9545 FLUs
same,"Fluorescence time course, Rat",[7]; 90 min,9915 FLUs
same,"Fluorescence time course, Rat",[7]; 100 min,10496 FLUs
same,"Fluorescence time course, Rat",[7]; 110 min,10736 FLUs
same,"Fluorescence time course, Rat",[7]; 120 min,11149 FLUs
same,FLUs,"[8]; 0 μM NADH, 60 min",314 FLUs
same,FLUs,[8]; [24],2570 FLUs
same,"Fluorescence time course, Clostridium",[8]; 2 min,354 FLUs
same,"Fluorescence time course, Clostridium",[8]; 4 min,481 FLUs
same,"Fluorescence time course, Clostridium",[8]; 5 min,576 FLUs
same,"Fluorescence time course, Clostridium",[8]; 10 min,1152 FLUs
same,"Fluorescence time course, Clostridium",[8]; 20 min,1974 FLUs
same,"Fluorescence time course, Clostridium",[8]; 30 min,2334 FLUs
same,"Fluorescence time course, Clostridium",[8]; 40 min,2515 FLUs
same,"Fluorescence time course, Clostridium",[8]; 50 min,2514 FLUs
same,"Fluorescence time course, Clostridium",[8]; 60 min,2570 FLUs
same,"Fluorescence time course, Clostridium",[8]; 70 min,2584 FLUs
same,"Fluorescence time course, Clostridium",[8]; 80 min,2561 FLUs
same,"Fluorescence time course, Clostridium",[8]; 90 min,2539 FLUs
same,"Fluorescence time course, Clostridium",[8]; 100 min,2555 FLUs
same,"Fluorescence time course, Clostridium",[8]; 110 min,2515 FLUs
same,"Fluorescence time course, Clostridium",[8]; 120 min,2570 FLUs
same,reduction of substrate in live cells (confocal images),[9],only reduced once inside cells
